Measurements: ChEMBL document CHEMBL5537185, “Discovery of the First-in-Class RORγ Covalent Inhibitors for Treatment of Castration-Resistant Prostate Cancer” (J Med Chem, 2024)

Columns and labels:
[1] = target: T1, Nuclear receptor ROR-gamma (Homo sapiens, UniProt P51449); assay: Inhibition of Gal4-fused RORgamma LBD (unknown origin) expressed in HEK293T cells incubated for 48 hrs by luciferase based assay; type: cell-based
T1 sequence (P51449 whole entry): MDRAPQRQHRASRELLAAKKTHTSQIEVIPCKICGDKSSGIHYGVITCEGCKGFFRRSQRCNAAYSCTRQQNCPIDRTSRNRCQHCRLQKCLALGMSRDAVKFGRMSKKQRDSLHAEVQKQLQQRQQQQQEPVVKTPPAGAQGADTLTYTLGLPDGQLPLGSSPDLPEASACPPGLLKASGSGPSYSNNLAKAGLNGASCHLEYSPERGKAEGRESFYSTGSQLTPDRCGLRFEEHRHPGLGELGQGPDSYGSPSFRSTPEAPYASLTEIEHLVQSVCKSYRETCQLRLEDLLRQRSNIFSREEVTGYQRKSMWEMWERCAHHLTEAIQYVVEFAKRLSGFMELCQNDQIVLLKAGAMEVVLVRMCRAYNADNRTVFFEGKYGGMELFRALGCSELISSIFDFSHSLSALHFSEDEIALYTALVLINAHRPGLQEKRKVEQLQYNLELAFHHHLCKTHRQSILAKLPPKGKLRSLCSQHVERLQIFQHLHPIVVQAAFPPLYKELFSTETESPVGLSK

CWR22R [2] = assay: Antitumor activity against human 22Rv1 cells xenografted in NOD/SCID mouse assessed as tumor growth inhibition at 5 mg/kg, ip administered five times a week for 2 weeks and measured two times per week; type: functional; settings: 22Rv1, 336 h, read-out: TGI
LNCaP = assay: Antiproliferative activity against human LNCaP cells incubated for 4 days by CCK8 assay; settings: 96 h
LNCaP C4-2B = assay: Antiproliferative activity against human LNCaP C4-2B cells incubated for 4 days by CCK8 assay; settings: 96 h
CWR22R [3] = assay: Antiproliferative activity against human 22Rv1 cells incubated for 4 days by CCK8 assay; settings: 22Rv1, 96 h
[4] = Metabolic stability in mouse liver microsomes assessed as half life at 0.1 uM preincubated for 10 mins followed by NADPH addition and measured upto 60 mins by LC-MS/MS analysis; type: ADME, Microsome; settings: time < 70 min

| SMILES | IC50 [1] | other results |
| --- | --- | --- |
| C=CC(=O)Nc1ccccc1-c1ccc(NC(=O)c2cccc(C#N)c2)cc1C | > 20 µM |  |
| CCS(=O)(=O)c1ccc(CC(=O)Nc2cc(Cl)c(-c3ccccc3OC(F)(F)F)c(Cl)c2)cc1 |  | inhibition in vivo at 5 mg/kg (CWR22R [2]): 31.1% |
| CCC(=O)Nc1ccccc1-c1ccc(NC(=O)Cc2ccc(S(=O)(=O)CC)cc2)cc1Cl |  | IC50 (LNCaP): > 10 µM; IC50 (LNCaP C4-2B): > 10 µM; IC50 (CWR22R [3]): > 10 µM |
| C=CC(=O)Nc1ccccc1-c1ccc(NC(=O)Cc2ccc(S(=O)(=O)CC)cc2)cn1 | 6.19 µM |  |
| C=CC(=O)Nc1ccccc1-c1ccc(NC(=O)Cc2ccc(S(=O)(=O)CC)cc2)cc1 | 4.08 µM |  |
| C=CC(=O)Nc1ccccc1-c1ccc(NC(=O)Cc2ccccc2[N+](=O)[O-])cc1C | 3.04 µM |  |

More lines, main results first:

| IC50 [1] | SMILES | other results |
| --- | --- | --- |
| 2.02 µM | C=CC(=O)Nc1ccccc1-c1ccc(NC(=O)Cc2cccc(C#N)c2)cc1C |  |
| 2.98 µM | CCC(=O)Nc1ccccc1-c1ccc(NC(=O)Cc2ccc(S(=O)(=O)CC)cc2)cc1C |  |
| 1.23 µM | C=CC(=O)Nc1ccccc1-c1ccc(NC(=O)Cc2ccc(S(C)(=O)=O)cc2)cc1C |  |
| 0.05 µM | C=CC(=O)Nc1ccccc1-c1c(Cl)cc(NC(=O)Cc2ccc(S(=O)(=O)CC)cc2)cc1Cl | half-life at 0.1 µM [4]: 2.07 min; IC50 (LNCaP): 0.7 µM; IC50 (LNCaP C4-2B): 0.29 µM; IC50 (CWR22R [3]): 0.92 µM |
| 2 µM | CCS(=O)(=O)c1ccc(CC(=O)Nc2ccc(-c3ccccc3NC(=O)CCl)c(C)c2)cc1 |  |
